# Measurements as given in PMC10510324, “A Biomimetic C-Terminal Extension Strategy for Photocaging Amidated Neuropeptides” (Journal of the American Chemical Society, 2023).
# Starred links: 1 amine or outer side, 2 acyl side, 3 side chain; linkers in the order of their positions; H or OH if unused. Non-standard residues stand in square brackets, D forms with d. Residues, ends and D or L forms follow the SMILES beside them. No end group written: not given here. X1 = COc1cc(C(CC(=O)[*:2])N[*:1])c([N+](=O)[O-])cc1OC; DMNBA = dimethoxynitrobenzyl beta-alanine, racemic
# T1: OTR (Mus musculus, UniProt P97926)
# T1 construct: from tissue; host or cells: acute mouse brain slices, PV interneurons of hippocampal CA1 and CA2 (PvalbCre; Ai14 mice)
# T1 sequence (P97926 1-388): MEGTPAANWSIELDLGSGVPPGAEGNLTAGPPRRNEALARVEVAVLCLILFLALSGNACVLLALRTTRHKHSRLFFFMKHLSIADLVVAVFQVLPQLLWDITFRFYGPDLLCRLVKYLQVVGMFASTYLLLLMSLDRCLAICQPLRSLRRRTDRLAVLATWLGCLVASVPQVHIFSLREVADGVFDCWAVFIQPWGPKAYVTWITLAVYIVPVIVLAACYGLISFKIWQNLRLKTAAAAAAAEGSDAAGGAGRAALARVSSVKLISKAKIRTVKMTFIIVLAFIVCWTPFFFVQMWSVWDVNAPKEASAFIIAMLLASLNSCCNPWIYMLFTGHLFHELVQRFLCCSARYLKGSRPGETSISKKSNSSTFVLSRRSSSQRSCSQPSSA
# B1: gastrin-releasing peptide (14-27) (peptide)
# peptide: MYPRGNHWAVGHLM-NH2
# B2: GRP(14-27)-NPP (peptide)
# peptide: MYPRGNHWAVGHLM[DMNBA]RKPEK
# modifications: also: DMNBA racemic, diastereomers not resolved
# Assays:
# GRPR = target: T2, GRPR (Mus musculus, UniProt P21729); experiment: Whole-cell recording of membrane currents, VIP interneurons of motor cortex, acute brain slices; format: cell-based
# T2 construct: from tissue; host or cells: acute mouse brain slices, VIP interneurons of primary motor cortex (VipCre; Ai14 mice)
# T2 sequence (P21729 whole entry): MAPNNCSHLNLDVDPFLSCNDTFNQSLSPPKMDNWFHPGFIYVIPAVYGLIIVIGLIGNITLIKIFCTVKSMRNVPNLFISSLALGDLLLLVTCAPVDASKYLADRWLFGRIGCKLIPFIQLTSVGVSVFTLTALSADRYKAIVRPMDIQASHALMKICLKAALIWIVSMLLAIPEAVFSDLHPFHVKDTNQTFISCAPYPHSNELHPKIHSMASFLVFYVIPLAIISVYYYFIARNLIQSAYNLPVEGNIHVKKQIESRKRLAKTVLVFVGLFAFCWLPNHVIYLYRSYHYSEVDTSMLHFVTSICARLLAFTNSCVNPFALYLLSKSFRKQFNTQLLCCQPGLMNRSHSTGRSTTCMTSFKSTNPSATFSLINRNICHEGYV
# Excerpt: (§1) Photoactivatable neuropeptides are powerful tools that can drive studies into the mechanisms of endogenous receptor signaling in acute brain slices.[3],[8],[40] To determine if NPP-caged peptides are compatible with such experiments, we established electrophysiological assays for measuring the activation of GRPR, OTR, NK1R, and CCK2R in acute brain slices taken from transgenic mice. These assays involved whole cell recordings of membrane currents from genetically defined neurons located in different brain regions where endogenous receptor activation produces inward, excitatory currents that facilitate action potential firing. Neuropeptide receptor-expressing cells were identified for fluorescence-guided, targeted electrophysiological recordings using transgenic mice that contain transgenes encoding Cre-recombinase under a promotor that is specific to the cell of interest, as well as a Cre-dependent tdTomato fluorescent protein via the Ai14 (Rosa26-lsl-tdTomato) reporter strain. […]
# (§2) (A) Average inward currents over time after bath application of GRP(14-27)-NPP (3 μM, n = 5 cells from 4 mice) or GRP(14-27) (300 nM, n = 5 from 4 mice), recorded from fluorescently labeled VIP interneurons in layer 1 of the motor cortex. Data are expressed as the mean ± SEM. […] Data are expressed as the mean ± SEM. […] Data are expressed as the mean ± SEM. […] Data are expressed as the mean ± SEM. […]
# [1] = target: T3, gastrin-releasing peptide receptor (GRPR) (Mus musculus, UniProt P21729); experiment: GloSensor cAMP assay of GPCR activation, GRPR; format: cell-based; settings: for EC50: GloSensor cAMP, n = 10 wells per data point
# T3 construct: host or cells: HEK293T
# T3 sequence (P21729 whole entry): as above
# Excerpt: To determine the effectiveness of the C-TEx caging strategy at attenuating peptide activity, we conducted a live-cell functional assay of GPCR activation in HEK293T cells transfected to express the primary receptors for each neuropeptide. The GloSensor assay reports changes in cyclic adenosine monophosphate (cAMP) signaling as a function of GPCR activation. […] To adapt this cAMP assay to report the activation of Gq-coupled GPCRs, we coexpressed a chimeric Gαs/Gαq protein (sq5) that allows Gq-coupled GPCRs to strongly engage the Gs pathway to elevate cAMP via activation of adenylyl cyclase.[39]
# Figure 3 In vitro characterization of NPP-caged neuropeptides using a functional assay of G protein signaling. (A) Dose–response curves at the gastrin-releasing peptide receptor (GRPR) using a GloSensor assay of cAMP signaling in HEK293T cells (n = 10 wells per data point). Data were normalized to the maximal response to GRP(14-27) (300 nM) and are expressed as the mean ± SEM.
# Reagent type (species) Designation Source or Identifiers
# GRPR plasmid mGRPR Genscript Clone ID OMu14220D
# OTR plasmid hOXR cdna.org Cat # OXTR000000
# CCK1R hCCK1R cdna.org Cat # CCKAR00000
# CCK2R plasmid hCCK2R cdna.org Cat # CCKBR00000
# NK1R plasmid hNK1R cdna.org Cat # TACR100000
# HEK293T cells ATCC.org Cat # CRL-3216
# GloSensor plasmid pGloSensor - Promega Cat # E2301
# GloSensor reagent cAMP Reagent Promega Product # E1291
# VIP-IRES-CRE, C57Bl/6J The Jackson background (M. musculus, VipCre Laboratory Cat # 010908
# Ai14, C57Bl/6J Rosa26-lsl- The Jackson background (M. musculus, tdTomato (Ai14) Laboratory Cat # 007914 […]
# C57Bl/6J background (M. ChatCre The Jackson Cat # 006410 musculus, male and Laboratory
# Pvalb-IRES-Cre, C57Bl/6J The Jackson background (M. musculus, PvalbCre Cat # 017320 male and female) Laboratory […]
# parent peptide. […] The solutions were illuminated in 15 sec periods, after which samples were removed and analyzed by LC-MS using a linear gradient (water/MeCN 5%/95% → MeCN 100%, 0-8 min with 0.1% formic acid) and a C-18 column (4.6 × 50 mm, 1.8 μm) (Agilent). Each compound was assessed in triplicate. […]
# OTR = target: T1, OTR; experiment: Whole-cell recording of membrane currents, PV interneurons of hippocampal CA1 and CA2, acute brain slices; format: cell-based
# Excerpt: as §1, §2
# NK1R = target: T4, NK1R (Mus musculus, UniProt P30548); experiment: Whole-cell recording of membrane currents, striatal cholinergic interneurons, acute brain slices; format: cell-based
# T4 construct: from tissue; host or cells: acute mouse brain slices, cholinergic interneurons of dorsal striatum (ChatCre; Ai14 mice)
# T4 sequence (P30548 whole entry): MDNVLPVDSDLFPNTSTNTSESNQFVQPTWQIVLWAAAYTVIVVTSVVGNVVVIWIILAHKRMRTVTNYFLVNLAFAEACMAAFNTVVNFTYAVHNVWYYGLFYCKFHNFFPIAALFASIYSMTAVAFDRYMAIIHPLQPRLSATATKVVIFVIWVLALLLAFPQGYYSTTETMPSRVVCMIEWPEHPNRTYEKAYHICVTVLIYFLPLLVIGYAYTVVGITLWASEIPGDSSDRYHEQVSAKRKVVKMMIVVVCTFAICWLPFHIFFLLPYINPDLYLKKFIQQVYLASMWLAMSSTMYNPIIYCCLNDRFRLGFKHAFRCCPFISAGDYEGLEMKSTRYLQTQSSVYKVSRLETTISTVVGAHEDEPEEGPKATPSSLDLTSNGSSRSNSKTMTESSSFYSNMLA
# Excerpt: Photoactivatable neuropeptides are powerful tools that can drive studies into the mechanisms of endogenous receptor signaling in acute brain slices.[3],[8],[40] To determine if NPP-caged peptides are compatible with such experiments, we established electrophysiological assays for measuring the activation of GRPR, OTR, NK1R, and CCK2R in acute brain slices taken from transgenic mice. These assays involved whole cell recordings of membrane currents from genetically defined neurons located in different brain regions where endogenous receptor activation produces inward, excitatory currents that facilitate action potential firing. Neuropeptide receptor-expressing cells were identified for fluorescence-guided, targeted electrophysiological recordings using transgenic mice that contain transgenes encoding Cre-recombinase under a promotor that is specific to the cell of interest, as well as a Cre-dependent tdTomato fluorescent protein via the Ai14 (Rosa26-lsl-tdTomato) reporter strain.
# Our experimental framework for evaluating NPP-caged peptides in brain slices is as follows. To assess residual activity, we compared the membrane currents evoked by bath application of the parent peptide and NPP-caged peptide. To evaluate photoactivation, we compared the peak current evoked by a single, high-intensity (20–200 ms, 50–80 mW) light flash from either a 355 nm laser or 365 nm LED, to the current evoked by bath application of the parent peptide, the NPP-caged peptide without light, and NPP-peptide photoactivation in the presence of a receptor antagonist.
# (A) Average inward currents over time after bath application of GRP(14-27)-NPP (3 μM, n = 5 cells from 4 mice) or GRP(14-27) (300 nM, n = 5 from 4 mice), recorded from fluorescently labeled VIP interneurons in layer 1 of the motor cortex. Data are expressed as the mean ± SEM. (B) Average inward currents evoked by photoactivation of GRP(14-27)-NPP (3 μM) with an […] light flash in the absence (green, n = 10 cells from 4 mice) and presence of the GRPR antagonist BW1023U90 (1 μM) (black, n = 6 cells from 2 mice). […] Data are expressed as the mean ± SEM. […] Data are expressed as the mean ± SEM. […] Data are expressed as the mean ± SEM. […] Data are expressed as the mean ± SEM.
# Brain slice preparation. All procedures were performed in accordance with protocols approved by the University of California San Diego Institutional Animal Care and Use Committee (IACUC) following guidelines described in the US National Institutes of Health Guide for Care and Use of Laboratory Animals (UCSD IACUC protocol S16171). Experiments were conducted using mice of both sexes and the data were combined. From Vip Cre; Rosa26-lsl-tdTomato (Ai14), mouse age ranged from P15-30. From Pvalb Cre; Rosa26-lsl-tdTomato (Ai14), mouse age ranged from P20-35. From Chat Cre; Rosa26-lsl-tdTomato (Ai14), mouse age ranged from P40-100. Mice were anesthetized with isoﬂurane and decapitated, and the brain was removed, blocked, and mounted in a VT1000S vibratome (Leica Instruments). For recordings from cortex and striatum, coronal slices (300 μm) were prepared, and for hippocampus, horizontal slices
# [2] = target: gastrin-releasing peptide receptor (UniProt P30550)
# gastrin-releasing peptide receptor, sequence (P30550 whole entry): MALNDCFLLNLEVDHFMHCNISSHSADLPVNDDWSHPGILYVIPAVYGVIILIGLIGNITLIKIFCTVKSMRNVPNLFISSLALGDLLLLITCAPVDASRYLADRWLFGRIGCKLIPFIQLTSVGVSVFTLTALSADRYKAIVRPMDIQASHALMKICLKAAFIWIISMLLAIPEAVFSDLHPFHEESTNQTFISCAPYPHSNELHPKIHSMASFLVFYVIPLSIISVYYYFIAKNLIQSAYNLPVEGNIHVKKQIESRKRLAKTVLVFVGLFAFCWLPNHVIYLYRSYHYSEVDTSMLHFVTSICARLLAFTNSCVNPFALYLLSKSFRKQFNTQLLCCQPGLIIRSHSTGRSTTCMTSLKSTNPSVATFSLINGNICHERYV
molecule,measurement,setting,value
3-Phenylpropanoyl-His-Trp-Ala-Val-D-Ala-His-D-Pro-CH2NH-Phe-NH2 [BW1023U90],block of light-evoked GRP(14-27)-NPP current,GRPR; antagonist 1 μM,completely blocked
"CSCC[C@H](NC(=O)[C@H](CC(C)C)NC(=O)[C@H](Cc1c[nH]cn1)NC(=O)CNC(=O)[C@@H](NC(=O)[C@H](C)NC(=O)[C@H](Cc1c[nH]c2ccccc12)NC(=O)[C@H](Cc1c[nH]cn1)NC(=O)[C@H](CC(N)=O)NC(=O)CNC(=O)[C@H](CCCNC(=N)N)NC(=O)[C@@H]1CCCN1C(=O)[C@H](Cc1ccc(O)cc1)NC(=O)[C@@H](N)CCSC)C(C)C)C(N)=O [GRP(14-27), Gastrin-releasing peptide (14-27)]",EC50,"[1]; HEK293T cells coexpressing chimeric Gαs/Gαq (sq5), normalized to GRP(14-27) 300 nM",0.0006 µM
same,"peak current amplitude, bath application","GRPR; 300 nM, n = 5 cells from 4 mice, held at −55 mV, mean ± SEM",−62.8 ± 12.8
COc1cc(C(CC(=O)N[C@@H](CCCNC(=N)N)C(=O)N[C@@H](CCCCN)C(=O)N2CCC[C@H]2C(=O)N[C@@H](CCC(=O)O)C(=O)N[C@@H](CCCCN)C(=O)O)NC(=O)[C@H](CCSC)NC(=O)[C@H](CC(C)C)NC(=O)[C@H](Cc2c[nH]cn2)NC(=O)CNC(=O)[C@@H](NC(=O)[C@H](C)NC(=O)[C@H](Cc2c[nH]c3ccccc23)NC(=O)[C@H](Cc2c[nH]cn2)NC(=O)[C@H](CC(N)=O)NC(=O)CNC(=O)[C@H](CCCNC(=N)N)NC(=O)[C@@H]2CCCN2C(=O)[C@H](Cc2ccc(O)cc2)NC(=O)[C@@H](N)CCSC)C(C)C)c([N+](=O)[O-])cc1OC (stereo partly drawn) [GRP(14-27)-NPP] (H-MYPRGNHWAVGHLM[X1]RKPEK-OH),EC50,"[1]; HEK293T cells coexpressing sq5, no light",6.1 µM
same,reduction of EC50 (potency) at the GRPR by NPP-caging,[1]; caged versus parent peptide,"~10,000 fold"
"CC[C@H](C)[C@@H]1NC(=O)[C@H](Cc2ccc(O)cc2)NC(=O)[C@@H](N)CSSC[C@@H](C(=O)N2CCC[C@H]2C(=O)N[C@@H](CC(C)C)C(=O)NCC(N)=O)NC(=O)[C@H](CC(N)=O)NC(=O)[C@H](CCC(N)=O)NC1=O [OT, Oxytocin]","peak current amplitude, bath application","OTR; 300 nM, n = 7 from 4 mice, held at -70 mV, mean ± SEM",−35.8 ± 5.7
"COc1ccccc1CC(=N)N1C[C@@H]2C(=O)CCC(c3ccccc3)(c3ccccc3)[C@@H]2C1 [RP67580, (3aR,7aR)-Octahydro-2-[1-imino-2-(2-methoxyphenyl)ethyl]-7,7-diphenyl-4H-isoindol]",block of light-evoked SP-NPP current,NK1R; antagonist 10 μM,largely blocked
"(d(CH2)5^1,Tyr(Me)^2,Thr^4,Orn^8,des-Gly-NH2^9)-Vasotocin [OTA]",block of light-evoked OT-NPP current,OTR; antagonist 1 μM,blocked
SP-NPP: NPP-caged substance P,"peak current amplitude, bath application without light","NK1R; 1 μM, 1:1 mixture of diastereomers, n = 6 cells from 5 mice, mean ± SEM",−5.2 ± 13.6
same,"peak current amplitude, photoactivation (+ UV)","NK1R; 1 μM, 1 × 20 ms, 84 mW, 365 nm LED, n = 5 cells from 5 mice, mean ± SEM",−265.5 ± 19.7
same,activity on bath application without light,"NK1R; 3 μM as printed in the text, 1:1 mixture of diastereomers",inactive
same,τon of light-evoked current,"NK1R; 1 × 20 ms, 84 mW, 365 nm LED",1.1 s
same,τoff slow of light-evoked current,"NK1R; 1 × 20 ms, 84 mW, 365 nm LED, biphasic decay",19.5 s
B1,"EC50 of receptor activation, GloSensor cAMP assay in HEK293T cells co-expressing the chimeric Gαs/Gαq protein sq5",[2],0.0006 µM
B2,"EC50 of receptor activation, GloSensor cAMP assay in HEK293T cells co-expressing the chimeric Gαs/Gαq protein sq5",[2],6.1 µM
